{
  "source": "patent US12594292B2",
  "about": "“Antiviral prodrugs, intermediate-and long-acting formulations and methods” (priority 2022, dated 2026)",
  "key": {"Calu 3 [1]": {"tested_on": "Calu 3", "experiment": "Antiviral evaluation of cyanobenzyl analogs, Calu 3", "format": "cell-based"}, "Huh7.5 [2]": {"tested_on": "Huh7.5", "experiment": "Antiviral evaluation of cyanobenzyl analogs, Huh7.5", "format": "cell-based"}, "in vitro [3]": {"experiment": "in vitro", "settings": "human"}, "in vitro [4]": {"experiment": "in vitro", "settings": "human", "remark": "listed apart in the source"}, "Calu 3 [5]": {"tested_on": "Calu 3", "experiment": "Cytotoxicity of cyanobenzyl analogs, Calu 3"}, "Huh7.5 [6]": {"tested_on": "Huh7.5", "experiment": "Cytotoxicity of cyanobenzyl analogs, Huh7.5"}, "in vitro [7]": {"experiment": "in vitro", "settings": "human", "remark": "listed apart in the source"}, "[8]": {"experiment": "CellTiter-Glo luminescent cell viability assay, Vero E6 (Example 3)", "format": "cell-based", "settings": "African green monkey", "protocol": "CellTiter-glo luminescent cell viability assay: Approximately 10^4 Vero E6 cells per well were seeded in opaque walled 96 well cell culture plates and incubated overnight. Compounds or controls were added at the indicated concentrations. […] Viability was calculated compared to untreated controls and CC50 values were calculated using Prism 8.\nDetermination of Cytotoxicity: The 50% cytotoxic concentrations (CC50) were determined with Cell Titer Glo (Cat. #G7570, Promega, Madison, WI) according to the manufacturer's instructions. The calculated CC50 values are shown in the foregoing table.\nRelative viability was measured by CellTiter-Glo luminescent cell viability assay, as depicted at FIG. 2."}, "[9]": {"tested_on": "SARS-CoV-2 isolate USA-WA1/2020", "experiment": "SARS-CoV-2 infection in PSC-human lung cells, qRT-PCR (Example 7)", "format": "cell-based", "settings": "Severe acute respiratory syndrome coronavirus 2; PSC-human lung cells, MOI 0.01, 48 hours"}, "[10]": {"experiment": "Seven day oral pharmacokinetics in Syrian hamsters", "format": "in vivo", "settings": "after oral administration of ODBG-P-RVn", "protocol": "ODBG-P-RVn in 0.1M sodium carbonate/bicarbonate buffer, pH 9.0, was administered to Syrian Hamsters by oral gavage every 12 hours for seven days. ODBG-P-RVn was present as the sodium salt.\nFIG. 4A and FIG. 4B depict the seven day oral pharmacokinetics in Syrian hamsters. Syrian hamsters were given vehicle or ODBG-P-RVn by oral gavage every 12 hours for 7 days. Groups of 3 animals received vehicle or drug at doses of 16.9 and 13.2 mg/kg. Animals were weighed daily and monitored for clinical signs.\nAnalytical Methods: ODBG-P-RVn: Hamster plasma samples (10 μL) containing ODBG-P-RVn and K2EDTA as the anticoagulant were added to polypropylene tubes containing water (100 μL), internal standard solution (10 μL; 1,000 ng/mL of ODE-P-RVn in ACN:DMF (1:1, v/v)), and 10 μL of ACN:DMF (1:1, v/v). The solutions were mixed, then acidified with phosphoric acid, 85% w/v:water (1:19, v/v; 10 μL), mixed, then diluted with 200 μL of IPA, mixed, then diluted with 500 μL of water, and mixed. The samples were extracted with a Sep-Pak® tC18 96-well solid phase extraction plate (25 mg; Waters, Milford, MA). Extraction occurred under positive pressure conditions using nitrogen. Samples were washed serially with 1 mL of water:acetonitrile:formic acid (475:25:0.5, v/v/v) and 0.4 mL of water:acetonitrile:formic acid (350:150:0.5, v/v/v) before being serially eluted with 100 μL and 150 μL of water:{acetonitrile:isopropyl alcohol (1:1, v/v)}:formic acid:ammonium formate:citric acid solution, 2% w/v (15:85:0.1:0.1:0.1, v/v/v/w/v). The citric acid solution was prepared as water:citric acid monohydrate (20:0.4, v/w). After elution, 100 μL of water was added to each sample. The ODBG-P-RVn extracts were analyzed using an Agilent 1200 HPLC system (Agilent, Santa Clara, CA) coupled to an API5500 mass analyzer (SCIEX, Foster City, CA). Analytes were chromatographically separated using a Dacapo DX-C18 MF column (100×2 mm, 2.5 μm; ImtaktUSA, Portland, OR) using a mobile phase system consisting of Mobile Phase A (water:formic acid:[water:ammonium formate:citric acid (25:5:0.5, v/w/w)](1.000:1:1, v/v/v) and Mobile Phase B (acetonitrile:isopropyl alcohol:formic acid:[water:ammonium formate:citric acid (25:5:0.5, v/w/w)](800:200:1:1, v/v/v/v). The total analytical run time was 4.5 minutes. The mobile phase was nebulized using heated nitrogen in a Turbo-V source/interface set to electrospray positive ionization mode. The ionized compounds were detected using multiple reaction monitoring with transitions m/z 788.4>229 (V2043) and 668.4>467.2 (V2041). This method is applicable for measuring ODBG-P-RVn concentrations ranging from 6.25 to 3,000 ng/mL using 10.0 μL of plasma for extraction. The peak areas of ODBG-P-RVn and RVn were acquired using Analyst v. 1.6.2 (SCIEX, Framingham, MA). The calibration curve was obtained by fitting the peak area ratios of the analyte/I.S. and the standard concentrations to a linear equation with 1/x2 weighting, using Analyst. The equation of the calibration curve was then used to interpolate the concentrations of the analyte in the samples using their peak area ratios. The peak areas used for the calculations were not rounded.\nThe solutions were mixed and centrifuged at 16,000 g for five minutes. […] The GS-441524 extracts were analyzed using an Acquity UPLC system (Waters, Milford, MA) coupled to a G2-S QTof mass analyzer (Waters, Milford, MA). […]"}, "in vitro [11]": {"experiment": "in vitro", "settings": "human", "remark": "listed apart in the source"}, "in vitro [12]": {"experiment": "in vitro", "settings": "human", "remark": "listed apart in the source"}, "[13]": {"tested_on": "SARS-CoV-2 isolate USA-WA1/2020", "experiment": "SARS-CoV-2 infection in Caco-2 cells, qRT-PCR (Example 7)", "format": "cell-based", "settings": "Severe acute respiratory syndrome coronavirus 2; Caco-2 cells, MOI 0.01, 48 hours"}, "in vitro [14]": {"experiment": "in vitro", "settings": "human", "remark": "listed apart in the source"}, "in vitro [15]": {"experiment": "in vitro", "settings": "African green monkey"}},
  "note": "Where two headings read alike, the source gives them in different places.",
  "data": [
    {"smiles": "CCCCCCCCCCCCCCCCCCOC[C@H](COP(=O)(O)OC[C@H]1O[C@@](C#N)(c2ccc3c(N)ncnn23)[C@@H](O)C1O)OCc1ccccc1C#N", "note": "(some centres unmarked) [OD(2-CN-Bn)G-P-RVn, 1-O-Octadecyl-2-O-(2-cyanobenzyl)-sn-glyceryl-phospho-RVn]", "values": [
      {"measurement": "SI", "setting": "Calu 3 [1]; Calu 3", "result": 909},
      {"measurement": "EC50", "setting": "Calu 3 [1]; Calu-3", "result": "91 ± 25", "unit": "nM"},
      {"measurement": "EC90", "setting": "Calu 3 [1]; Calu-3", "result": "186 ± 47", "unit": "nM"},
      {"measurement": "EC50", "setting": "Huh7.5 [2]", "result": "10.2 ± 17", "unit": "nM"},
      {"measurement": "EC90", "setting": "Huh7.5 [2]", "result": "281 ± 30", "unit": "nM"},
      {"measurement": "SI", "setting": "Huh7.5 [2]", "result": ">980"},
      {"measurement": "CC50", "setting": "in vitro [3]", "result": 82800, "unit": "nM"},
      {"measurement": "CC50", "setting": "in vitro [4]", "result": "> 100000", "unit": "nM"}
    ]},
    {"smiles": "CCCCCCCCCCCCCCCCCCOC[C@H](COP(=O)(O)OC[C@H]1O[C@@](C#N)(c2ccc3c(N)ncnn23)[C@H](O)[C@@H]1O)OCc1cccc(C#N)c1", "note": "[OD(3-CN-Bn)G-P-RVn, 1-O-Octadecyl-2-O-(3-cyanobenzyl)-sn-glyceryl-phospho-RVn]", "values": [
      {"measurement": "CC50", "setting": "Calu 3 [5]", "result": 61600, "unit": "nM"},
      {"measurement": "CC50", "setting": "Huh7.5 [6]", "result": 49600, "unit": "nM"},
      {"measurement": "SI", "setting": "Calu 3 [1]; Calu 3", "result": 1810},
      {"measurement": "EC50", "setting": "Calu 3 [1]; Calu 3, read-out: EC50", "result": "34 ± 7", "unit": "nM"},
      {"measurement": "EC90", "setting": "Calu 3 [1]; Calu 3, read-out: EC90", "result": "65 ± 36", "unit": "nM"},
      {"measurement": "SI", "setting": "Huh7.5 [2]", "result": 2066},
      {"measurement": "EC50", "setting": "Huh7.5 [2]; read-out: EC50", "result": "24 ± 6", "unit": "nM"},
      {"measurement": "EC90", "setting": "Huh7.5 [2]; read-out: EC90", "result": "77 ± 17", "unit": "nM"}
    ]},
    {"smiles": "N#C[C@@]1(c2ccc3c(N)ncnn23)O[C@H](CO)[C@@H](O)[C@H]1O", "note": "[RVn, 2-C-(4-aminopyrrolo[2,1-f][1,2,4]triazin-7-yl)-2,5-anhydro-D-altrononitrile, reference compound]", "values": [
      {"measurement": "CC50 at 48.5 h", "setting": "in vitro [7]", "result": "> 100000", "unit": "nM"},
      {"measurement": "CC50 at 48.5 h", "setting": "[8]", "result": "> 100000", "unit": "nM"},
      {"measurement": "EC90", "setting": "[9]", "result": 2620, "unit": "nM"},
      {"measurement": "plasma levels of RVn versus EC90 for RVn in PSC lung cells and Vero E6 cells", "setting": "[10]", "result": "less than the EC90"},
      {"measurement": "time of peak plasma levels of RVn, the nucleoside metabolite of ODBG-P-RVn", "setting": "[10]", "result": 3, "unit": "h"},
      {"measurement": "CC50 at 48.5 h", "setting": "in vitro [11]", "result": "> 100000", "unit": "nM"},
      {"measurement": "CC50 at 48.5 h", "setting": "in vitro [12]", "result": "> 100000", "unit": "nM"},
      {"measurement": "EC90", "setting": "[13]", "result": 1750, "unit": "nM"},
      {"measurement": "CC50 at 48.5 h", "setting": "in vitro [14]", "result": "> 100000", "unit": "nM"},
      {"measurement": "CC50 at 48.5 h", "setting": "in vitro [15]", "result": "> 100000", "unit": "nM"}
    ]}
  ]
}
